Test results reported in patent US20250339462A1, “CANCER TREATMENT USING ULTRA-HIGH CONCENTRATION GASEOUS NITRIC OXIDE AND A CHECKPOINT INHIBITOR” (Beyond Air, Inc., priority 2022, published 2025).

Tested on: CT26 cells
Test: In vitro UNO exposure of CT26 cells, Annexin V/PI cell death analysis
Type: cell-based, mouse
Conditions: 25,000-100,000 ppm for 10 s, 30 s or 1 min; 24 hours following exposure; dosage and time dependent
Protocol: Preparation of cells—Mouse colon carcinoma CT26.WT cells (ATCC number: CRL-2638) were grown to a 70-80% confluency and harvested using trypsin. Following, the cells were centrifuged at 1,200 revolutions per minute (rpm)—241 G for 8 minutes, then the pellet was re-suspended in 1 ml of cell media (RPMI—1640 supplemented with 10% FBS and 1% Pen-Strep). The cells were counted using an automated cell counter and a total of 2×10^6 cells were seeded into each […] containing 9 ml cell media. The plates were then placed for 24 hours in an incubator at 37° C., 5% CO2.
UNO treatment—Following 24 hours of incubation, cell media was removed, and the plate was placed in an acrylic box stationed within an operating chemical fume hood. Prior to the initiation of treatment, the box was exposed to UV for 1 hour to reduce the chances of contamination. The box was closed and sealed with parafilm. A PVC delivery line was placed within a designated hole on the top of the box and lowered until approximately 5 cm within the box. The flowmeter was set to 1 LPM to expose the cells for the durations and concentrations described in Table 3 (control cells were untreated).
Following treatment, 9 ml of cell media were added to each well and the plate was placed for 24 hours in an incubator at 37° C., 5% CO2.
Flow cytometry—Cell media was removed to a 50 ml centrifuge tube. […]

## [N]=O [UNO, nitric oxide]
  Effect on viability of CT26 cancer cells: reduces viability and induces apoptosis and necrosis
